Source: patent US9040516B2, “Uracil derivative and use thereof for medical purposes” (SUMITOMO DAINIPPON PHARMA CO., LTD., priority 2011, dated 2015)
Where a name gives a salt, the structure may show the parent alone.

Each compound was assayed against T1, human neutrophil elastase (Homo sapiens, UniProt P08246) (assay: Inhibitory action against human neutrophil elastase (Test Example 1; fluorogenic substrate MeOSuc-AAPV-AMC, buffer with 2M NaCl, 0.002% Brij-35)). Details: 37° C., read-out: IC50 value (compound concentration required for 50% inhibition of human neutrophil elastase).
T1 construct: purchased Elastin Products Company
T1 sequence (P08246 30-267): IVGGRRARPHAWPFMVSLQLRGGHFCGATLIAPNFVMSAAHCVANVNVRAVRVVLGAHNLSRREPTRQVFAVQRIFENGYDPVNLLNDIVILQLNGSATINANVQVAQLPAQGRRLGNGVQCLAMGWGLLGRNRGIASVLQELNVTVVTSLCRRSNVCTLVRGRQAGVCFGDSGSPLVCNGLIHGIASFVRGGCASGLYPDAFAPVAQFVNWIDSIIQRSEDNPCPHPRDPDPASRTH
Assay type: biochemical
Description: Assay buffer (0.4 unit/ml HNE (human neutrophil elastase, available from Elastin Products Company), 200 mM HEPES [N-(2-hydroxyethyl)piperazine-N′-(2-ethanesulfonic acid)], pH 7.5, 2M NaCl, 0.002% Brij-35) 100 μl, water for injection 40 μl and DMSO (dimethyl sulfoxide) solution of the present compound 20 μl were mixed in a 96 well plate and the mixed solutions were pre-incubated at 37° C. for five minutes. After pre-incubation, MeOSuc-AAPV-AMC (methoxysuccinyl-alanyl-alanyl-prolyl-valyl-aminomethyl cumaride (available from Sigma Aldrich Co.) solution as fluorogenic substrate (which was dissolved in 10% DMSO solution so as to adjust to 0.5 mM) 40 μl was added to the above-prepared mixed solution so as to initiate the reaction, and the mixture was incubated at 37° C. for five minutes. The fluorescence intensity of AMC was measured at an excitation wavelength of 380 nm and a fluorescence wavelength of 460 nm and the inhibition ratio was determined.
`Cc1c(-c2ccnn2-c2ccc(C#N)cc2)c(=O)n(CCC(=O)O)c(=O)n1-c1cccc(C(F)(F)F)c1` [Example 73, 3-[5-[1-(4-Cyanophenyl)-1H-pyrazol-5-yl]-4-methyl-2,6-dioxo-3-(3-trifluoromethylphenyl)-2,3-dihydropyrimidin-1(6H)-yl]propanoic acid] showed an IC50 of 535 nM. Work on `CNC(=O)CCCn1c(=O)c(-c2ccnn2-c2ccc(C#N)cc2)c(C)n(-c2cccc(C(F)(F)F)c2)c1=O` [Example 80, 4-[5-[1-(4-cyanophenyl)-1H-pyrazol-5-yl]-4-methyl-2,6-dioxo-3-(3-trifluoromethylphenyl)-2,3-dihydropyrimidin-1(6H)-yl]-N-methylbutaneamide] yielded an IC50 of 1290 nM. For `Cc1c(-c2ccnn2-c2ccc(C#N)cc2)c(=O)n(C)c(=O)n1-c1cccc(C(F)(F)F)n1` [Example 33, 4-[5-[3,6-dimethyl-2,4-dioxo-1-(6-trifluoromethylpyridine-2-yl)-1,2,3,4-tetrahydropyrimidin-5-yl]-1H-pyrazol-1-yl]benzonitrile], the IC50 was 74600 nM. For `Cc1c(-c2ccnn2-c2ccc(C#N)cc2)c(=O)n(CC(N)=O)c(=O)n1-c1cccc(C(F)(F)F)c1` [Example 76, 2-[5-[1-(4-cyanophenyl)-1H-pyrazol-5-yl]-4-methyl-2,6-dioxo-3-(3-trifluoromethylphenyl)-2,3-dihydropyrimidin-1(6H)-yl]-acetamide], the IC50 was 232 nM. In the case of `Cc1c(-c2ccnn2-c2ccc(C#N)cc2)c(=O)n(CC(=O)O)c(=O)n1-c1cccc(C(F)(F)F)c1` [Example 72, 2-[5-[1-(4-Cyanophenyl)-1H-pyrazole-5-yl]-4-methyl-2,6-dioxo-3-(3-trifluoromethylphenyl)-2,3-dihydropyrimidin-1(6H)-yl]acetic acid], the IC50 is reported as 138 nM. For `CCCn1c(=O)c(-c2ccnn2-c2ccc(C#N)cc2)c(N=CN(C)C)n(-c2cccc([N+](=O)[O-])c2)c1=O` [Example 29, N′-[5-[1-(4-cyanophenyl)-1H-pyrazol-5-yl]-3-(3-nitrophenyl)-2,6-dioxo-1-propyl-1,2,3,6-tetrahydropyrimidin-4-yl]-N,N-dimethylformimidamide], the IC50 was 2140 nM. In the case of `Cn1c(=O)c(-c2ccnn2-c2ccc(C#N)cc2)c(N)n(-c2cccc(C(F)(F)F)c2)c1=O` [Example 58, 4-[5-[6-Amino-3-methyl-2,4-dioxo-1-(3-trifluoromethylphenyl)-1,2,3,4-tetrahydropyrimidin-5-yl]-1H-pyrazol-1-yl]benzonitrile], the IC50 is reported as 552 nM. `Cc1c(-c2ccnn2-c2ccc(C#N)cc2)c(=O)n(CCCC(=O)N(C)C)c(=O)n1-c1cccc(C(F)(F)F)c1` [Example 81, 4-[5-[1-(4-cyanophenyl)-1H-pyrazol-5-yl]-4-methyl-2,6-dioxo-3-(3-trifluoromethylphenyl)-2,3-dihydropyrimidin-1(6H)-yl]-N,N-dimethylbutaneamide] was tested, and the IC50 was 616 nM. Work on `COc1cccc(-n2c(C)c(-c3ccnn3-c3ccc(C#N)cc3)c(=O)n(C)c2=O)c1` [Example 12, 4-[5-[1-(3-methoxyphenyl)-3,6-dimethyl-2,4-dioxo-1,2,3,4-tetrahydropyrimidin-5-yl]-1H-pyrazol-1-yl]benzonitrile] yielded an IC50 of 1490 nM. Compound `Cc1c(-c2ccnn2-c2ccc(C#N)cc2)c(=O)n(CCCO)c(=O)n1-c1cccc(C(F)(F)F)c1` [Example 83, 4-[5-[3-(3-Hydroxypropyl)-6-methyl-2,4-dioxo-1-(3-trifluoromethylphenyl)-1,2,3,4-tetrahydropyrimidin-5-yl]-1H-pyrazol-1-yl]benzonitrile] has an IC50 of 776 nM. `Cc1c(-c2ccnn2-c2ccc(C#N)cc2)c(=O)n(CCC(=O)N(C)C)c(=O)n1-c1cccc(C(F)(F)F)c1` [Example 75, 3-[5-[1-(4-Cyanophenyl)-1H-pyrazol-5-yl]-4-methyl-2,6-dioxo-3-(3-trifluoromethylphenyl)-2,3-dihydropyrimidin-1(6H)-yl]-N,N-dimethylpropaneamide] showed an IC50 of 656 nM. Compound `CCc1cccc(-n2c(C)c(-c3ccnn3-c3ccc(C#N)cc3)c(=O)n(C)c2=O)c1` [Example 108, 4-[5-[3,6-Dimethyl-2,4-dioxo-1-(3-ethylphenyl)-1,2,3,4-tetrahydropyrimidin-5-yl]-1H-pyrazol-1-yl]benzonitrile] has an IC50 of 332 nM. In the case of `Cc1c(-c2ccnn2-c2ccc(C#N)cc2)c(=O)n(C)c(=O)n1-c1cccc(C(=O)O)c1` [Example 103, 3-[5-[1-(4-Cyanophenyl)-1H-pyrazol-5-yl]-3,6-dimethyl-2,4-dioxo-3,4-dihydropyrimidin-1(2H)yl]benzoic acid], the IC50 is reported as 12200 nM. `Cc1c(-c2ccnn2-c2ccc(C#N)cc2)c(=O)n(C)c(=O)n1-c1cccc(C(N)=O)c1` [Example 104, 3-[5-[1-(4-Cyanophenyl)1H-pyrazol-5-yl]-3,6-dimethyl-2,4-dioxo-3,4-dihydropyrimidin-1(2H)yl]benzamide] gave an IC50 of 92500 nM. `CSc1cc(C#N)ccc1-n1nccc1-c1c(C)n(-c2cccc(C(F)(F)F)c2)c(=O)n(C)c1=O` [Example 36, 4-[5-[3,6-dimethyl-2,4-dioxo-1-(3-trifluoromethylphenyl)-1,2,3,4-tetrahydropyrimidin-5-yl]-1H-pyrazol-1-yl]-3-(methylthio)benzonitrile] was tested, and the IC50 was 111 nM. `COc1ccc(-n2nccc2-c2c(C)n(-c3cccc(C(F)(F)F)c3)c(=O)n(C)c2=O)cc1` [Example 40, 5-(1-(4-methoxyphenyl)-1H-pyrazol-5-yl)-3,6-dimethyl-1-(3-(trifluoromethyl)phenyl)pyrimidin-2,4(1H,3H)-dione] was tested, and the IC50 was 8340 nM. For `CNCCn1c(=O)c(-c2ccnn2-c2ccc(C#N)cc2)c(C)n(-c2cccc(C(F)(F)F)c2)c1=O` [Example 70, 4-[5-[6-Methyl-3-(2-methylaminoethyl)-2,4-dioxo-1-(3-trifluoromethylphenyl)-1,2,3,4-tetrahydropyrimidin-5-yl]-1H-pyrazol-1-yl]benzonitrile], the IC50 was 43 nM. With `Cc1c(-c2ccnn2-c2ccc(C#N)cc2)c(=O)n(CCCCO)c(=O)n1-c1cccc(C(F)(F)F)c1` [Example 84, 4-[5-[3-(4-hydroxybutyl)-6-methyl-2,4-dioxo-1-(3-trifluoromethylphenyl)-1,2,3,4-tetrahydropyrimidin-5-yl]-1H-pyrazol-1-yl]benzonitrile] the IC50 was 147 nM. `CCOC(=O)CCn1c(=O)c(-c2ccnn2-c2ccc(C#N)cc2)c(C)n(-c2cccc(C(F)(F)F)c2)c1=O` [Example 4, 3-[5-[1-(4-cyanophenyl)-1H-pyrazol-5-yl]-4-methyl-2,6-dioxo-3-(3-trifluoromethylphenyl)-2,3-dihydropyrimidin-1(6H)-yl]propanoic acid ethyl ester] showed an IC50 of 131 nM. Work on `COc1ccc(Cn2c(=O)c(-c3ccnn3-c3ccc(C#N)cc3)c(C)n(-c3cccc(C(F)(F)F)c3)c2=O)cc1` [Example 9, 4-[5-[3-(4-methoxybenzyl)-6-methyl-2,4-dioxo-1-(3-trifluoromethylphenyl)-1,2,3,4-tetrahydropyrimidin-5-yl]-1H-pyrazol-1-yl]benzonitrile] yielded an IC50 of 2950 nM. In the case of `Cc1c(-c2ccnn2-c2ccc(C#N)cc2S(C)(=O)=O)c(=O)n(C)c(=O)n1-c1cccc(C(F)(F)F)c1` [Example 102, 4-[5-[3,6-Dimethyl-2,4-dioxo-1-(3-trifluoromethylphenyl)-1,2,3,4-tetrahydropyrimidin-5-yl]-1H-pyrazol-1-yl]-3-(methylsulfonyl)benzonitrile], the IC50 is reported as 150 nM. Compound `CCOC(=O)CCCn1c(=O)c(-c2ccnn2-c2ccc(C#N)cc2)c(C)n(-c2cccc(C(F)(F)F)c2)c1=O` [Example 5, 4-[5-[1-(4-cyanophenyl)-1H-pyrazol-5-yl]-4-methyl-2,6-dioxo-3-(3-trifluoromethylphenyl)-2,3-dihydropyrimidin-1(6H)-yl]butanoic acid ethyl ester] has an IC50 of 170 nM. Compound `Cc1c(-c2ccnn2-c2ccc(C#N)cc2)c(=O)n(CC=O)c(=O)n1-c1cccc(C(F)(F)F)c1` [Example 68] has an IC50 of 111 nM. `Cc1c(-c2ccnn2-c2ccc(C#N)cc2)c(=O)n(CCCCCN)c(=O)n1-c1cccc(C(F)(F)F)c1` [Example 85, 4-[5-[3-(5-Aminopentyl)-6-methyl-2,4-dioxo-1-(3-trifluoromethylphenyl)-1,2,3,4-tetrahydropyrimidin-5-yl]-1H-pyrazol-1-yl]benzonitrile hydrochloride] gave an IC50 of 4.3 nM. Compound `CNC(=O)c1cccc(-n2c(C)c(-c3ccnn3-c3ccc(C#N)cc3)c(=O)n(C)c2=O)c1` [Example 105, 3-[5-[1-(4-cyanophenyl)1H-pyrazol-5-yl]-3,6-dimethyl-2,4-dioxo-3,4-dihydropyrimidin-1(2H)yl]-N-methylbenzamide] has an IC50 of 22300 nM.

Same assay, conditions: at 100 μM
In the case of `Cc1c(-c2ccnn2-c2ccc(C#N)cc2)c(=O)n(C)c(=O)n1-c1ccccc1C(F)(F)F` [Example 15, 4-[5-[3,6-dimethyl-2,4-dioxo-1-(2-trifluoromethylphenyl)-1,2,3,4-tetrahydropyrimidin-5-yl]-1H-pyrazol-1-yl]benzonitrile], the “Inhibition ratio (%)” value is reported as 76%. With `Cc1c(-c2ccnn2-c2ccc(C#N)cc2)c(=O)n(C)c(=O)n1-c1ccc(C(F)(F)F)cc1` [Example 16, 4-[5-[3,6-dimethyl-2,4-dioxo-1-(4-trifluoromethylphenyl)-1,2,3,4-tetrahydropyrimidin-5-yl]-1H-pyrazol-1-yl]benzonitrile] the “Inhibition ratio (%)” value was 90%.
